The text below walks through data of US11180474B2 (BRISTOL-MYERS SQUIBB COMPANY, priority 2016, dated 2021).

Counter-ions that a name gives are not always drawn.

The target in the assay is T1, human TLR9 (Homo sapiens, UniProt Q9NR96).
T1 construct: host or cells: HEK-Blue cells
T1 sequence (Q9NR96 26-1032): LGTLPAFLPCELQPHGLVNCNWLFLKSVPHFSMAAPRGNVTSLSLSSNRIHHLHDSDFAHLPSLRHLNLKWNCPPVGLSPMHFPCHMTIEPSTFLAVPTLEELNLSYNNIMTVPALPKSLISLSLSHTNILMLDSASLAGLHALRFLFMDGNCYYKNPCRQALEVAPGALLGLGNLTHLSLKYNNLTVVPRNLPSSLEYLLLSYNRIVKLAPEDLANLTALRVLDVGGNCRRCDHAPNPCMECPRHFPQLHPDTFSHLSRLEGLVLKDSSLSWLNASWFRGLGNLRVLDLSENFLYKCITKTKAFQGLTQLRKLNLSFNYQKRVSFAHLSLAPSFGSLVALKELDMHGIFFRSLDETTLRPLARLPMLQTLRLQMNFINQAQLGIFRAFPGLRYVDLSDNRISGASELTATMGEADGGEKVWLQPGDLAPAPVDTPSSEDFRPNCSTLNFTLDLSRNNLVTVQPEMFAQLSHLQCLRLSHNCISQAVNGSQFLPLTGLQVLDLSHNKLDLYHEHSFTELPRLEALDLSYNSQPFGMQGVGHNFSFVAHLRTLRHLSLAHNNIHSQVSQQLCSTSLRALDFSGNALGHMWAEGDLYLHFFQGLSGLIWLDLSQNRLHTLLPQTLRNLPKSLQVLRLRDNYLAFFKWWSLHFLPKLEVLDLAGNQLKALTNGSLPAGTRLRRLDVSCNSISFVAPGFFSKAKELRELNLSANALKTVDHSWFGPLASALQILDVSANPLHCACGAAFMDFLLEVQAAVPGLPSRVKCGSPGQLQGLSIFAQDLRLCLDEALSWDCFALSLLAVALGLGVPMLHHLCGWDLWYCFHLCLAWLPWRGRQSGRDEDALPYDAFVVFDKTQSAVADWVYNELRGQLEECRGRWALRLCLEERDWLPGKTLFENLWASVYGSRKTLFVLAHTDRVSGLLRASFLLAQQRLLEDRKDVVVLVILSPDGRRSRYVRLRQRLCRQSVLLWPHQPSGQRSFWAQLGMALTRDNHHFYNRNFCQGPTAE
Nature of the assay: TLR9 inhibition reporter assay (HEK-Blue cells, SEAP reporter, ODN2006 stimulation). In kind it is cell-based. The following applies: HEK-Blue cells overexpressing human TLR9, ODN2006 5 nM. In a few lines: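 Compound treatment: 30 min, RT, 0.05 nM–50 μM final. Agonist: TLR7 gardiquimod 7.5 μM; TLR8 R848 15.9 μM; TLR9 ODN2006 5 nM. Incubation 22 h, 37 °C, 5% CO2. Readout SEAP, HEK-Blue Detection.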
Background: A reporter such as luciferase makes a cellular process visible.
In the case of `COc1ccc(-c2[nH]c3ccc(C4CCN(C(=O)CN[C@H](C)C(C)C)CC4)cc3c2C2CCOCC2)cc1OC` [Example 394, (R)-1-(4-(2-(3,4-dimethoxyphenyl)-3-(tetrahydro-2H-pyran-4-yl)-1H-indol-5-yl)piperidin-1-yl)-2-((3-methylbutan-2-yl)amino)ethan-1-one], the IC50 is 2.76 µM.

Molecule `COc1ccc(-c2[nH]c3ccc(C4CCN(C(=O)CN(C)C)CC4)cc3c2C(O)C(F)(F)F)cc1OC` (stereo not drawn) [Example 395, 1-(4-(2-(3,4-dimethoxyphenyl)-3-(2,2,2-trifluoro-1-hydroxyethyl)-1H-indol-5-yl)piperidin-1-yl)-2-(dimethylamino)ethan-1-one] returned an IC50 of 13.2 µM.

Consider `CCc1c(-c2ccc(OC)c(OC)c2)[nH]c2cc(C)c(C3CCNCC3)cc12` [Example 396, 2-(3,4-dimethoxyphenyl)-3-ethyl-6-methyl-5-(piperidin-4-yl)-1H-indole, HCl], for which the IC50 is 3.43 µM.

For the molecule `COc1ccc(-c2[nH]c3ccc(C4CCN(C(=O)CN(C)C)CC4)cc3c2CC(F)F)cc1OC` [Example 399, 1-(4-(3-(2,2-difluoroethyl)-2-(3,4-dimethoxyphenyl)-1H-indol-5-yl)piperidin-1-yl)-2-(dimethylamino)ethan-1-one], the IC50 is 2.17 µM.

The molecule `COc1ccc(-c2[nH]c3ccc(C4CCN(CC(=O)N(C)C)CC4)cc3c2CC(F)F)cc1OC` [Example 400, 2-(4-(3-(2,2-difluoroethyl)-2-(3,4-dimethoxyphenyl)-1H-indol-5-yl)piperidin-1-yl)-N,N-dimethylacetamide] had a 50% inhibitory concentration (IC50) of 3.96 µM.

With `CNC(=O)CN1CCC(c2ccc3[nH]c(-c4ccc(OC)c(OC)c4)c(CC(F)F)c3c2)CC1` [Example 401, 2-(4-(3-(2,2-difluoroethyl)-2-(3,4-dimethoxyphenyl)-1H-indol-5-yl)piperidin-1-yl)-N-methylacetamide], inhibition was half-maximal at 5.29 µM (IC50).

The molecule `COc1ccc(-c2[nH]c3ccc(C4CCN(C(=O)CN(C)C)CC4)cc3c2C)cc1OC` [Example 402, 1-(4-(2-(3,4-dimethoxyphenyl)-3-methyl-1H-indol-5-yl)piperidin-1-yl)-2-(dimethylamino)ethan-1-one] gave an IC50 of 5.82 µM.

On to `CCN(CC)C(=O)C1CCCN(CC(=O)N2CCC(c3ccc4[nH]c(-c5ccc(OC)c(OC)c5)c(C)c4c3)CC2)C1` (stereo not drawn) [Example 404, 1-(2-(4-(2-(3,4-dimethoxyphenyl)-3-methyl-1H-indol-5-yl)piperidin-1-yl)-2-oxoethyl)-N,N-diethylpiperidine-3-carboxamide], for which the midpoint of inhibition, the IC50, lay at 8.64 µM.

On to `COc1ccc(-c2[nH]c3ccc(C4CCN(C(=O)CNC[C@@H](O)CO)CC4)cc3c2C)cc1OC` [Example 405, (R)-2-((2,3-dihydroxypropyl)amino)-1-(4-(2-(3,4-dimethoxyphenyl)-3-methyl-1H-indol-5-yl)piperidin-1-yl)ethan-1-one], for which the IC50 worked out at 13.5 µM.

One may read the IC50 as the concentration that gives 50% inhibition.
